Here are results for 16 compounds from patent US10342796B2, “Acrylanilide derivative, preparation method, and applications thereof in pharmacy” (Ancureall Pharmaceutical (Shanghai) Co., Ltd., priority 2015, dated 2019).

For one data set, the system named is MV4-11 (FLT3-ITD). Briefly: Growth inhibition GI50 in vitro (CCK8/MTT, 72 h). It is filed as cell-based, human. The conditions noted are these: for GI50: Homo sapiens, MV4-11, FLT3-ITD; for inhibition effects: FLT3-ITD+ MV4-11 cells. As for the experimental part:
FLT3 is a kind of PTK and about 20-30% of patients with acute myelocytic leukemia (AML) in clinic express FLT3-ITD mutation protein. FLT3-ITD positive cell line MV4-11 was cultured with 1×RPMI1640 complete medium (supplement with 10% FBS).
(§1) The suspension cells were collected by centrifugation. The supernatant was discard and the cell pellet was resuspended and counted. Different cell concentrations (5˜10×10^4 cells/mL) were prepared according to the growth cycle of each cell line and then seeded on a 96-well plate (Corning), 100 μL/well. The cells were incubated over night at 37° C., 5% CO2. The compounds were added to the cells on the second day with 2 wells in parallel. The final concentration of organic solvent shall not exceed 1%. The cells were continually incubated for 72 h, and then subjected to MTT assay.
(§2) The present compounds and the reference compounds were dissolved with DMSO (Sigma), respectively. […] The storage concentration of compounds was 10 mM and kept at −20° C. They were diluted by 2 times or 10 times with serial dilution before using.
(§3) Dojindo CCK8 reagent kit was used as MTT assay. […] FC meter was used as microplate reader.
(§4) Adherent cell culture medium was discard and immediately replaced with fresh prepared medium which contains 10% CCK8 reagent (100 μL/well). For the suspension cells, CCK8 was directly added to 10% of the final concentration. The cells were continually incubated for 1˜4 h. When the color of control wells turned to dark yellow, the absorption value was measured at OD450 nm. The cell growth rate was calculated according to the following formula: cell growth rate (%)=100*(T−T0)/(C−T0), T=optical density of drug treatment cell well—optical density of blank control well; T0=optical density of cell well before drug treatment—optical density of blank control well; C=optical density of cell well of solvent control group—optical density of blank control well. […] The experiment was independently repeated 1˜3 times, and subject to biological statistical analysis.
(§5) Growth inhibition assay was conducted in the cell lines shown Table 14 with the different oncogene mutations. Each compound started at 1000 nM as an initial concentration and was diluted by 2 times with serial dilution to 0.03 nM.

The subject of data set [1] is HCT116 (EGFR wt, Kras G13D). Description: Growth inhibition GI50 in vitro (CCK8/MTT, 72 h). It is filed as cell-based. The conditions noted are these: Homo sapiens, HCT-116. As for the experimental part: as §1, §2, §3, §4, §5
For the next data set, the system named is SH-SY5Y (ALK F1174L). Briefly: Growth inhibition GI50 in vitro (CCK8/MTT, 72 h). The class given is cell-based. The settings on record: Homo sapiens, EGFR wt. The method, then: Neuroblastoma cell line SH-SY5Y (ALK F1174L positive) (Shanghai Cell Bank of Chinese Academy of Sciences) was cultured with MEM complete medium (supplement with 10% FBS, 1% NEAA, 1% double-antibiotics and 1 mM of sodium pyruvate).
as §1, §2, §3, §4, §5

Data set [2] relates to NCI-H1781 (HER2 exon 20 G776VC mutation). Description: Growth inhibition GI50 in vitro (CCK8/MTT, 72 h). The class given is cell-based. The settings on record: Homo sapiens.
A further data set can be described thus: Pharmacokinetics in rat. The settings on record: male, Sprague-Dawley, plasma, SD rat, iv 5 mg/kg, solvent water. The class given is in vivo, Sprague-Dawley (SD) rats. The method, then:
Sprague-Dawley (SD) rats (male) were purchased from Shanghai SIPPR BK Laboratory Animals Co. and kept under specific pathogen-free conditions adaptively for 7 days in the Shanghai University of Traditional Chinese Medicine animal care facility (All animal studies were conducted with the approval of the University Ethics Committee). The rats were randomly divided to 2 groups (3 rats/group) for each compound. One group was administrated by tail vein injection (iv) and the other group was intragastrically administrated. The compound was formulated into a clear aqueous solution with methanesulfonic acid, PH>3.5. The rats were starved for 12 hours before drug administration and the blood samples were collected from the orbital plexus at 0 min (before drug administration), 2 min, 5 min, 15 min, 30 min, 1 h, 2 h, 4 h, 6 h, 8 h and 24 h, respectively. Each blood sample was added to a 1.5 mL centrifuge tube with heparin sodium and then centrifuged at 8000 rpm at 4° C. for 3 min. Upper blood serum was collected. The compound concentration in plasma was determined by LC-MS/MS. The pharmacokinetics parameters were calculated with the professional pharmacokinetics software WinNonlin. The experiment was repeated once.

Where [3] appears, read: HCT116, EGFR wt, Kras G13D, read-out: GI50.
The mark [4] stands for this setting: NCI-H1781, Table 16, 1000 nM to 0.03 nM serial dilution, read-out: GI50 H1781 (HER2 G776VC).

Read-outs that look alike come from different tables or passages of the source. A value given as a limit tells only on which side of the number the result lay.

A word on the GI50: it is the concentration giving 50% growth inhibition. Turning to `C=CC(=O)Nc1cc(Nc2nccc(Nc3cccc(Cl)c3)n2)c(OC)cc1N(C)CCN(C)C` [Compound 2, N-(5-(4-(3-chloro-phenylamino)-pyrimidin-2-ylamino)-2-(2-(dimethylamino-ethyl)-methyl-amino)-4-methoxyl-phenyl)-acrylamide], the GI50 (with MV4-11 (FLT3-ITD); in data set [1] (setting [3]); with SH-SY5Y (ALK F1174L)) was more than 1 µM throughout.
As to `C=CC(=O)Nc1cc(Nc2nccc(-n3cnc4ccccc43)n2)c(OC)cc1N(C)CCN(C)C` [Compound 106], the GI50 (with MV4-11 (FLT3-ITD); in data set [1] (setting [3]); with SH-SY5Y (ALK F1174L)) was more than 1 µM in each case.
For the compound `C=CC(=O)Nc1cc(Nc2cc(Nc3cc(OC)c(Cl)cc3Cl)ncn2)c(OC)cc1N(C)CCN(C)C` [Compound 136, N-(5-(6-(2,4-dichloro-5-methoxyl-phenylamino)-pyrimidin-4-ylamino)-2-((2-dimethylamino-ethyl)-methyl-amino)-4-methoxyl-phenyl)-acrylamide], the GI50 in data set [2] (setting [4]) worked out at 0.00732 µM.
With `C=CC(=O)Nc1cc(Nc2ncc(Cl)c(Nc3ccc(OCc4ccccn4)c(Cl)c3)n2)c(OC)cc1N(C)CCN(C)C` [Compound 19, N-(5-(5-chloro-4-(3-chloro-4-(pyridin-2-methoxyl)phenylamino)-pyrimidin-2-ylamino)-2-((2-(dimethylamino)ethyl)(methyl)amino)-4-methoxyl-phenyl)-acrylamide], the GI50 (with MV4-11 (FLT3-ITD); in data set [1] (setting [3]); in the data set with SH-SY5Y (ALK F1174L)) was more than 1 µM each time.
In the case of `C=CC(=O)Nc1cc(Nc2cc(Nc3ccc(F)c(Cl)c3)ncn2)c(OC)cc1N1CCN(C2CCN(C)CC2)CC1` [Compound 147, N-(5-(6-(3-chloro-4-fluoro-phenylamino)-pyrimidin-4-ylamino)-4-methoxyl-2-(4-(1-methylpiperidin-4-yl)-piperazin-1-yl)-phenyl)-acrylamide], the GI50 (in the data set on MV4-11 (FLT3-ITD); in data set [1] (setting [3]); with SH-SY5Y (ALK F1174L)) was more than 1 µM each time.
`C=CC(=O)Nc1cc(Nc2cc(Nc3ccc(F)c(Cl)c3)ncn2)c(OC)cc1N(C)CCN(C)C` [Compound 140, N-(5-(6-(3-chloro-4-fluoro-phenylamino)-pyrimidin-4-ylamino)-2-((2-dimethylamino-ethyl)-methyl-amino)-4-methoxyl-phenyl)-acrylamide]: in the data set with MV4-11 (FLT3-ITD), the “inhibition effects” value is “moderate inhibition effects”. The GI50 (in the data set with MV4-11 (FLT3-ITD); in data set [1] (setting [3]); with SH-SY5Y (ALK F1174L)) was more than 1 µM each time.
Broadly, the bioavailability is the share of a dose that reaches the circulation, judged against a reference dose that is usually intravenous. Read a high bioavailability as good availability. With `C=CC(=O)Nc1cc(Nc2nccc(-n3ccc4c(OC)cccc43)n2)c(OC)cc1N(C)CCN(C)C` [Compound 99, N-(5-(4-(4-methoxyl-1H-indol-1-yl)-pyrimidin-2-ylamino)-2-(2-(dimethylamino-ethyl)-methyl-amino)-4-methoxyl-phenyl)-acrylamide], in data set [2] (setting [4]), the GI50 was 0.00192 µM. The bioavailability in the data set “Pharmacokinetics in rat” (po 50 mg/kg) was 40.9%.
Consider `C=CC(=O)Nc1cc(Nc2cc(Nc3cc(F)c(OC)c(Cl)c3)ncn2)c(OC)cc1N(C)CCN(C)C` [Compound 236, N-(5-(6-(3-chloro-5-fluoro-4-methoxyphenylamino)-pyrimidin-4-yl-amino)-2-((2-dimethylamino-ethyl)-methyl-amino)-4-methoxyl-phenyl)-acrylamide], for which the 50% growth inhibitory concentration (GI50) in data set [2] (setting [4]) was found to be 0.00096 µM.
As to `C=CC(=O)Nc1cc(Nc2cc(-c3cn(C(C)C)c4ccccc34)ncn2)c(OC)cc1N(C)CCN(C)C` [Compound 183], the “inhibition effects” value with MV4-11 (FLT3-ITD) was “moderate inhibition effects”. In addition, the GI50 (with MV4-11 (FLT3-ITD); in data set [1] (setting [3]); with SH-SY5Y (ALK F1174L)) was more than 1 µM in each case.
As for `C=CC(=O)Nc1cc(Nc2ncnc(Nc3cccc(F)c3)n2)c(OC)cc1N(C)CCN(C)C` [Compound 114, N-(5-(4-(3-fluoro-phenylamino)-[1,3,5]triazin-2-ylamino)-2-((2-dimethylamino-ethyl)-methyl-amino)-4-methoxyl-phenyl)-acrylamide], the “inhibition effects” value in the data set with MV4-11 (FLT3-ITD) is “moderate inhibition effects”. Further, the GI50 in the data set with MV4-11 (FLT3-ITD) is 0.124 µM; in data set [1] (setting [3]), more than 1 µM; with SH-SY5Y (ALK F1174L), more than 1 µM.
Turning to `C=CC(=O)Nc1cc(Nc2nccc(-c3cn(C)c4ccccc34)n2)c(OC)cc1N(C)CCN(C)C` [AZD9291, reference compound], the GI50 with MV4-11 (FLT3-ITD) is more than 1 µM; in data set [1], more than 1 µM; in data set [2] (NCI-H1781, read-out: GI50 H1781 (HER2 G776VC)), 0.195 µM; in the data set on SH-SY5Y (ALK F1174L), more than 1 µM.
For `C=CC(=O)Nc1cc(Nc2nccc(Nc3ccc(OCc4ccccn4)c(Cl)c3)n2)c(OC)cc1N(C)CCN(C)C` [Compound 18, N-(5-(4-(3-chloro-4-(pyridin-2-methoxyl)phenylamino)pyrimidin-2-ylamino)-2-((2-(dimethylamino)ethyl)(methyl)amino)-4-methoxyl-phenyl)-acrylamide], the GI50 (in the data set on MV4-11 (FLT3-ITD); in data set [1] (setting [3]); in the data set on SH-SY5Y (ALK F1174L)) was more than 1 µM in each case. For the same compound, in the data set “Pharmacokinetics in rat” (po 25 mg/kg), the bioavailability came out at 50.3%.
Consider `C=CC(=O)Nc1cc(Nc2cc(Nc3ccc(OCC4CCOCC4)c(Cl)c3)ncn2)c(OC)cc1N(C)CCN(C)C` [Compound 216, N-(5-(6-(3-chloro-4-(tetrahydropyran-4-yl-methoxyl)-phenylamino)-pyrimidin-4-ylamino)-2-((2-dimethylaminoethyl)-methyl-amino)-4-methoxyphenyl)-acrylamide], for which the GI50 in data set [2] (setting [4]) was determined as 0.0195 µM.
For `C=CC(=O)Nc1cc(Nc2ncnc(Nc3cccc(Br)c3)n2)c(OC)cc1N1CCC(N2CCCC2)CC1` [Compound 118], in the data set with MV4-11 (FLT3-ITD), the “inhibition effects” value is reported as “moderate inhibition effects” and the GI50 came out at 0.156 µM. In data set [1] (setting [3]), the GI50 was more than 1 µM.
Consider `C=CC(=O)Nc1cc(Nc2nccc(-n3ccc4ccc(F)cc43)n2)c(OC)cc1N(C)CCN(C)C` [Compound 63, N-(5-(4-(6-fluoro-1H-indol-1-yl)-pyrimidin-2-ylamino)-2-((2-(dimethylamino)ethyl)-methyl-amino)-4-methoxyl-phenyl)-acrylamide], for which the bioavailability in “Pharmacokinetics in rat” (po 25 mg/kg) worked out at 55.8%.
`C=CC(=O)Nc1cc(Nc2nccc(-n3ccc4c(OCCOC)cccc43)n2)c(OC)cc1N(C)CCN(C)C` [Compound 205, N-(5-(4-(4-(2-methoxyl-ethoxyl)-1H-indol-1-yl)-pyrimidin-2-ylamino)-2-(2-(dimethylamino-ethyl)-methyl-amino)-4-methoxyl-phenyl)-acrylamide]: the GI50 in data set [2] (setting [4]) worked out at 0.00152 µM.
